Assay results taken from publication PMC10938783, “A novel pan-PI3K inhibitor KTC1101 synergizes with anti-PD-1 therapy by targeting tumor suppression and immune activation” (Molecular Cancer, 2024).

Key:
[1] = Liver microsome metabolic stability assay; conditions: mouse, liver microsomes
[2] = test system: Tregs; assay: T cell suppression assay (CFSE); assay type: cell-based, mouse
Experimental: Spleens from naive mice were isolated and ground through 70-μm filters to generate a single-cell suspension. After RBC lysis, single-cell suspensions were stained with CD3, CD8, CD4, CD25 or CD127 antibodies. Viable CD8^+ T cells (CD3^+CD8^+), CD4^+ T cells (CD3^+CD4^+), and Tregs (CD3^+CD4^+CD25^+CD127^low/−) from single-cell suspensions were sorted by FACS. Then T cells were labelled with […] in pre-warmed PBS for 10 min at 37 °C. The CFSE-labelled T cells were seeded in 96-well plates pre-coated with 10 μg/mL CD3 and 1 μg/mL CD28 antibodies and cultured in 1640 media with 10% FBS, 1 mM Sodium Pyruvate (Thermo, 11,360,070), 50 μM β-ME and 100 IU/mL IL2, as well as different concentrations of KTC1101 or solvent control. After 72 h, cells were harvested and the CFSE signal was measured by flow cytometry. Cell growth rate was calculated by the percentage of live, proliferated cell number at each drug concentration vs. solvent control.

[3] = Plasma metabolic stability assay; assay type: in vitro ADME; conditions: mouse plasma, 37°C, 120 min incubation
Experimental: 495 µL of plasma was placed in a 96-well plate and pre-incubated at 37°C for 5 min.

[4] = test system: PC3 cells gene expression; assay: RNA-Seq (DEGs, GSEA) of PC3 cells; conditions: 25 nM, 48 h
[5] = test system: CAL33 cells; assay: Cell proliferation MTT assay; assay type: cell-based; conditions: Homo sapiens, CAL-33; CAL33, 48-h treatment; read-out: IC50 cell viability
Experimental: (§1) Cell proliferation was measured by MTT assay as previously described. The cells were seeded in a volume of 200 μL/well in 96-well plates. The next day, cells were treated with DMSO or a series of concentrations of KTC1101. After a 48-h incubation period, 20 μL of MTT (5 mg/mL) was added to each well. After further incubation for 4 h at 37 °C, the absorbance at 490 nm was measured using an iMark microplate reader (BIO-RAD, Hercules, CA, USA).

[6] = test system: PC3 cells; assay: Cell proliferation MTT assay; assay type: cell-based; conditions: Homo sapiens, PC-3; PC3, 48-h treatment; read-out: IC50 cell viability
Experimental: as §1

[7] = test system: HSC4 cells; assay: Cell proliferation MTT assay; assay type: cell-based; conditions: Homo sapiens, HSC-4; HSC4, 48-h treatment; read-out: IC50 cell viability
Experimental: as §1

[8] = test system: TMD8 cells; assay: Cell proliferation MTT assay; assay type: cell-based; conditions: Homo sapiens; TMD8, 48-h treatment; read-out: IC50 cell viability
Experimental: as §1

[9] = Pharmacokinetic study of oral administration; assay type: in vivo; conditions: mouse, blood, BALB/c male mice, 100 mg/kg p.o.
Experimental: Chromatographic conditions employed a Waters BEH C18 column (2.1 mm × 50.0 mm, 1.7 µm) with a mobile phase comprising acetonitrile with 0.1% formic acid (A) and water with 0.1% formic acid (B), at a flow rate of 0.4 mL/min and a column temperature of 40°C. Gradient elution was used: 0–0.3 min, 20:80 → 20:80 (A:B); 0.3–2.5 min, 20:80 → 60:40 (A:B); 2.5–3.0 min, 60:40 → 100:0 (A:B); 3.0–3.01 min, 100:0 → 20:80 (A:B); 3.01–3.5 min, 20:80 → 20:80 (A:B). Mass spectrometry was performed using electrospray ionization (ESI) in positive ion mode, with a capillary voltage of 1 kV, a desolvation temperature of 450 °C, and a desolvation gas flow of 800 L/h. KTC1101 and internal standard phenacetin parameters were optimized for ionization and collision energies.
KTC1101 was prepared at 1 mg/mL concentration in acetonitrile, and further diluted to create a series of standard solutions. Blood samples were taken from BALB/c male mice (19 ± 2g) at various time points post-oral administration of KTC1101 (100 mg/kg). Samples were processed and analyzed using HPLC coupled with mass spectrometry. Data were calculated using Masslynx 4.1 and DAS 3.0 software.

[10] = test system: TMD8 tumors; assay: TMD8 xenograft in NSG mice; assay type: in vivo, mouse
Experimental: (§2) BALB/c nude, NSG, and C57BL/6J mice were obtained from Tianjin Medical University. The housing temperature was controlled, ranging from 20.5–24 °C, and humidity was monitored but not controlled ranging from 30–70%. The 12-h daily light cycle was from 06:00 to 18:00. To generate a murine subcutaneous tumor model, PC3 and HSC2 cells were subcutaneously injected into the right lateral flank of 4- to 5-week-old male BALB/c nude mice. TMD8, CAL33, and S24 cells were subcutaneously injected into the right lateral flank of 4- to 5-week-old male NSG mice. When tumors reached a volume of 300–500 mm^3, they were excised, diced into 2 mm × 2 mm × 2 mm pieces, and implanted into the right flanks of BALB/c nude or NSG mice. Tumors were allowed to grow to a volume of 100 mm^3, and then the animals were randomly divided into several groups. Each group of five mice was treated with either vehicle or KTC1101 (25, 50, or 100 mg/kg, PO). Tumor size was measured every 3 d or 4 d until the endpoint. The tumor volume was calculated using the following formula: length × width × height/2. At the end of the experimental period, mice were euthanized by overdosing on pentobarbital sodium, and the tumors were removed. Tumor tissue was formalin-fixed and paraffin-embedded for histological analysis.

[11] = test system: HSC2 tumors; assay: HSC2 xenograft in BALB/c nude mice; assay type: in vivo, mouse; conditions: 100 mg/kg PO
Experimental: as §2

[12] = test system: immune cell populations in B16 tumors; assay: Flow cytometry of tumor-infiltrating immune cells; assay type: in vivo, mouse; conditions: intermittent dosing
Experimental: To obtain single-cell suspensions for analysis by flow cytometry, tumors were excised, minced, and dissociated in Deoxyribonuclease/collagenase/hyaluronidase buffer (0.1 mg/mL Deoxyribonuclease I, 0.2 mg/mL Collagenase IV and 0.2 mg/mL Hyaluronidase) for 60 min at 37 °C with agitation, and strained through a 70 μm strainer for downstream applications. Tissue was dissociated as described above to obtain single-cell suspensions. Cells were stained with antibodies for 30 min at 4 °C, and then fixed and intracellularly stained using Foxp3/ Transcription Factor Staining Buffer Set (eBioscience) according to the manufacturer’s instructions. Antibodies used in this study can be found in Supplementary Table 2. The stained cells were acquired on a BD C6 Flow Cytometer using BD AccuriTM C6 Software (BD Biosciences) and the data were processed using FlowJo software.

Structure (SMILES): COc1cc(N)cc2c1nc(C(F)F)n2-c1nc(N2CCCOCC2)nc(N2CCOCC2)n1 [KTC1101, 2-(difluoromethyl)-4-methoxy-1-(4-morpholino-6-(1,4-oxazepan-4-yl)-1,3,5-triazin-2-yl)-1H-benzo[d]imidazol-6-amine]
- half-life at 1 µM [1]: 40.7 min
- microsomal CLint at 1 µM [1]: 34 µL/min/mg
- selective inhibition of Treg proliferation over CD8^+ T cells [2]: over a tenfold greater extent than CD8^+ T cells
- IC50 ([2]; Mus musculus, T-cell, 72 h, read-out: IC50 proliferation): 2.58 nM
- half-life at 1 µM [3]: > 120 min
- expression of genes associated with the PI3K/AKT/mTOR pathway (GSEA) [4]: reduction in the expression of genes
- IC50 [5]: 124 nM
- IC50 [6]: 23.2 nM
- IC50 [7]: 50.6 nM
- IC50 [8]: 20.6 nM
- AUC(0-t) [9]: 9330 ng·h/mL
- Cmax [9]: 1660 ng/mL
- Tmax [9]: 40.2 min
- half-life [9]: 431 ± 244 min
- CL/F ([9]; read-out: CLz/F (converted)): 179 mL/min/kg
- Vd/F ([9]; read-out: Vz/F): 118 ± 85.5 L/kg
- tumor growth ([10]; 100 mg/kg PO): slowed tumor progression
- efficacy versus ZSTK474 and Copanlisib ([10]; 100 mg/kg and 125 mg/kg PO): marginally outperformed those of 200 mg/kg ZSTK474 orally and was comparable to 14 mg/kg Copanlisib intravenously
- tumor growth [11]: Tumor growth arrest
- intratumoral T cell populations (FACS) [12]: increase in intratumoral CD8^+ T, CD4^+ T, and a reduction of Treg cells
